Measured values taken from patent US20020151522A1, “Regulation of weight” (priority 2001, published 2002).
Where two headings read alike, the source gives them in different places.

Experiments:
[1] = Weight gain in human patient suffering from a head injury, central administration for 14 days; assay type: in vivo
Protocol: GPE in a dose of 10 μg/Kg/day is administered via lateral cerebroventricular injection into the brain of a human patient suffering from a head injury to promote weight gain to normal levels. Alternatively, a GPE analog is administered. Treatment is commenced as soon as possible after the head injury and then for 14 days thereafter.
A GPE analog in a dose of 20 μg/Kg/day is administered via focal injection into the lateral cerebral ventricle of a human patient suffering from a head injury to promote weight gain to normal levels. Alternatively, GPE is administered. Treatment is commenced as soon as possible after the head injury and then for 14 days thereafter.
GPE in a dose of 5 μg/Kg/day is administered via a surgically inserted shunt into the lateral cerebral ventricle of a human patient suffering from a head injury to promote weight gain to normal levels. Alternatively, a GPE analog is administered. Treatment is commenced as soon as possible after the head injury and then for 14 days thereafter.

[2] = Body weight gain over 14 days after unilateral fimbria-fornix lesion with daily intracerebroventricular infusion; assay type: in vivo, rat; settings: male Wistar rats, fimbria-fornix lesion/cannulation; icv 2 μL daily for 14 days; GPE 3 μg/day, IGF-I 20 μg/day, NGF 1 μg/day
Source text: A group of male Wistar rats weighing 174-193 g (University of Auckland, Animal Resources Unit) were divided randomly into the following groups: “control”, “sham”, “vehicle”, “GPE”, “IGF-I”, and “NGF”, depending on the treatment each animal was to undergo. “Control” animals were weighed at the first and last time points and were not treated or handled at any other time. “Sham” animals underwent a sham surgery of anesthesia, incision through the scalp skin, drill hole through the skull, bone wax to seal the drill hole, and sutures for the skin incision. They were then handled daily in mock infusions to mimic handling of animals that received lesions and intracerebroventricular infusions.
“Vehicle”, “GPE”, “IGF-I”, and “NGF” animals were anaesthetized with 75 mg/Kg sodium pentobarbital and positioned in a stereotaxic apparatus (Kopf Instruments, USA), and underwent unilateral fimbria-fomix lesions to lesion septal cholinergic neurons and chronic cannula implantation into the left lateral cerebral ventricle. Fomix-fimbria lesions were performed by transecting the fimbria-fornix projection using a specialized retractable wire Scouten knife (Kopf Instruments) designed to minimize tissue damage except at the required lesion site. Anaesthetized animals received an incision through their scalp skin and a small drill hole was made in the skull at the stereotaxic coordinates anterior-posterior (AP) axis −1.0 mm from the bregma and medial-lateral (ML) axis +2.5 mm from midline (left side), from an atlas of the rat brain (Paxinos et al. (1986), “The rat brain in stereotaxic coordinates”, Academic Press, London). The knife was lowered into the brain through the drill hole to the coordinate +6.0 mm ventral to the skull on the dorsal-ventral (DV) axis. The knife blade was then extended 2.5 mm toward midline at an angle of 30° caudal to the bregma. The knife, with blade extended, was then raised 4.5 mm dorsally to axotomize the fimbriafomix fibres. The blade was then retracted, the knife lowered 4.5 mm to its original coordinate, and the process was repeated. […]

[3] = administered into the brain, adult rats after transient forebrain ischemia; cited from earlier work
[4] = intravenous, humans after moderate to severe head injury; cited from earlier work
[5] = infused in the brain of adult rats with partial or full lesions, e.g. partial fimbria-fornix transection; cited from earlier work
[6] = intracerebroventricular, patients with Alzheimer's disease; cited from earlier work
[7] = administered to the brain of normal, unlesioned rats; cited from earlier work

With NCC(=O)N1CCC[C@H]1C(=O)N[C@@H](CCC(=O)O)C(=O)O [GPE, glycyl-L-prolyl-L-glutamic acid] the “weight gain in the patient” value ([1]; 5 μg/Kg/day via surgically inserted shunt into the lateral cerebral ventricle) was “Normal weight gain is promoted”, the “weight gain in the patient” value ([1]; 10 μg/Kg/day via lateral cerebroventricular injection) was “Normal weight gain is promoted” and the “weight gain in the patient” value ([1]; 20 μg/Kg/day via focal injection into the lateral cerebral ventricle) was “Normal weight gain is promoted”. For the same molecule, the “weight gain over the 14 days” value [2] was “the normally expected weight gain occurred”.

In the case of IGF-I: insulin-like growth factor I, the “effect on body weight” value [3] is given as “cause weight gain”, the “effect on body weight” value [4] is given as “cause weight gain” and the “weight gain over the 14 days” value [2] is given as “minimal weight gain”.

In the case of NGF: Nerve growth factor, the “effect on body weight” value [5] is listed as “either decrease normal body weight gain or cause weight loss”, the “weight gain over the 14 days” value [2] is listed as “no weight gain” and the “effect on body weight” value [6] is listed as “marked weight reduction”. The “effect on body weight” value [7] was “cause weight loss”.

For bFGF: basic fibroblast growth factor, the “effect on body weight” value [5] is given as “either decrease normal body weight gain or cause weight loss”.

B1: BDNF: brain-derived neurotrophic factor (protein, UniProt P23560 19-247, looked up)
Neurotrophic factor BDNF …: APMKEANIRGQGGLAYPGVRTHGTLESVNGPKAGSRGLTSLADTFEHVIEELLDEDQKVRPNEENNKDADLYTSRVMLSSQVPLEPPLLFLLEEYKNYLDAANMSMRVRRHSDPARRGELSVCDSISEWVTAADKKTAVDMSGGTVTVLEKVPVSKGQLKQYFYETKCNPMGYTKEGCRGIDKRHWNSQCRTTQSYVRALTMDSKKRIGWRFIRIDTSCVCTLTIKRGR
In the case of B1, the “effect on body weight” value [5] is given as “either decrease normal body weight gain or cause weight loss” and the “effect on body weight” value [7] is given as “cause weight loss”.

B2: GDNF: glial-derived neurotrophic factor (protein, UniProt P39905 78-211, looked up)
Glial cell line-derived …: SPDKQMAVLPRRERNRQAAAANPENSRGKGRRGQRGKNRGCVLTAIHLNVTDLGLGYETKEELIFRYCSGSCDAAETTYDKILKNLSRNRRLVSDKVGQACCRPIAFDDDLSFLDDNLVYHILRKHSAKRCGCI
For B2, the “effect on body weight” value [5] is given as “either decrease normal body weight gain or cause weight loss” and the “effect on body weight” value [7] is given as “cause weight loss”.
